Literature values as cited in publication PMC10025373, “Red ginseng dietary fiber promotes probiotic properties of Lactiplantibacillus plantarum and alters bacterial metabolism” (Frontiers in Microbiology, 2023).

How the values were obtained:
[1] = test system: actomyosin motor; parameters: method as in Komatsu et al., 2004; details: ref Komatsu et al., 2004
[2] = test system: Staphylococcus aureus; details: ref Lens et al., 2016
[3] = test system: E. coli; details: ref Lens et al., 2016

Compound: CCCCCCO [Hexanol]
- function of the actomyosin motor [1]: modulates the function of the actomyosin motor

Compound: CCCCOC(C)=O [butyl acetate]
- antimicrobial activity [2]: antimicrobial activity
- antimicrobial activity [3]: antimicrobial activity
